From ChEMBL document CHEMBL2151008, “Enhanced ROS production and cell death through combined photo- and sono-activation of conventional photosensitising drugs” (2011) come the findings set out here.

The structures appear in SMILES notation. The source made the active and inactive calls. The rule behind the calls is not given here.

A short description of experiment [1]: ROS-generating activity of the sono-irradiated compound assessed as singlet oxygen generation measuring reduction in absorbance at 410 nm at 5 uM by DPBF oxidation method. Also on record: scale not given: the % may be the effect or the level left.
Experiment [2] relates to CHO. As to the kind of experiment: Cytotoxicity against CHO cells assessed as cell death at 0.1 to 100 uM after 3 hrs followed by photo/sono-irradiation for 30 secs measured 24 hrs post irradiation by MTT assay. The following applies: Cricetulus griseus. Type of experiment: functional, cell-based. (Tetrazolium assays rely on reduction of a dye to a coloured formazan, in cell work by metabolically active cells.)

Experiment [3] is described as follows: ROS-generating activity of the photo-irradiated compound assessed as singlet oxygen generation measuring reduction in absorbance at 410 nm at 5 uM by DPBF oxidation method. More on the design: scale not given: the % may be the effect or the level left.
Experiment [4] has as its system CHO. As to the kind of experiment: Cytotoxicity against CHO cells assessed as cell death at 0.1 to 100 uM after 3 hrs followed by photo-irradiation for 30 secs measured 24 hrs post irradiation by MTT assay. Type of experiment: functional, cell-based. The following applies: Cricetulus griseus.
Experiment [5] can be described thus: ROS-generating activity of the photo/sono-irradiated compound assessed as singlet oxygen generation measuring reduction in absorbance at 410 nm at 5 uM by DPBF oxidation method. Also on record: scale not given: the % may be the effect or the level left.
Experiment [6] has as its system CHO. As to the kind of experiment: Cytotoxicity against CHO cells assessed as cell death at 0.1 to 100 uM after 3 hrs followed by sono-irradiation for 30 secs measured 24 hrs post irradiation by MTT assay. Type of experiment: functional, cell-based. The following applies: Cricetulus griseus.
Experiment [7] deals with CHO. As to the kind of experiment: Cytotoxicity against CHO cells assessed as cell death at 100 uM after 3 hrs followed by photo/sono-irradiation for 30 secs measured 24 hrs post irradiation by MTT assay relative to photo-irradiated cells. It counts as functional, Cricetulus griseus.
The test system of experiment [8] is CHO. As to the kind of experiment: Cytotoxicity against CHO cells assessed as cell death at 100 uM after 3 hrs followed by photo/sono-irradiation for 30 secs measured 24 hrs post irradiation by MTT assay relative to sono-irradiated cells. Type of experiment: functional, Cricetulus griseus.
For experiment [9], the system named is CHO. As to the kind of experiment: Cytotoxicity against CHO cells assessed as cell viability at 100 uM after 3 hrs by MTT assay. Type of experiment: functional. To be noted: Cricetulus griseus, read-out: Activity.
The subject of experiment [10] is CHO. As to the kind of experiment: Cytotoxicity against CHO cells after 3 hrs followed by sono-irradiation for 30 secs measured 24 hrs post irradiation by MTT assay. It counts as functional, Cricetulus griseus.
The subject of experiment [11] is CHO. As to the kind of experiment: Cytotoxicity against CHO cells assessed as cell death at 100 uM after 3 hrs followed by photo/sono-irradiation for 30 secs measured 24 hrs post irradiation by MTT assay. Type of experiment: functional, Cricetulus griseus.
The test system of experiment [12] is CHO. As to the kind of experiment: Cytotoxicity against CHO cells assessed as cell death at 100 uM after 3 hrs followed by sono-irradiation for 30 secs measured 24 hrs post irradiation by MTT assay. It counts as functional, Cricetulus griseus.
The test system of experiment [13] is CHO. As to the kind of experiment: Cytotoxicity against CHO cells after 3 hrs followed by photo/sono-irradiation for 30 secs measured 24 hrs post irradiation by MTT assay. It counts as functional, Cricetulus griseus.
In experiment [14] the test system is CHO. As to the kind of experiment: Cytotoxicity against CHO cells assessed as cell death at 100 uM after 3 hrs followed by photo-irradiation for 30 secs measured 24 hrs post irradiation by MTT assay. It counts as functional, Cricetulus griseus.
Experiment [15] relates to CHO. As to the kind of experiment: Cytotoxicity against CHO cells after 3 hrs by MTT assay. Type of experiment: functional, Cricetulus griseus.
Experiment [16] has as its system CHO. As to the kind of experiment: Cytotoxicity against CHO cells after 3 hrs followed by photo-irradiation for 30 secs measured 24 hrs post irradiation by MTT assay. Type of experiment: functional, Cricetulus griseus.

With `CN(C)c1ccc2nc3ccc(=[N+](C)C)cc-3sc2c1`, the results for the Activity in [1], in experiment [3] and in experiment [5] were 40.1%, 38.8% and 71.8%, respectively. For the same compound, the outcome in the experiment on CHO [2], in the experiment with CHO [4] and with CHO [6] was Active.

For `CN(C)c1ccc2nc3ccc(N(C)C)cc3[s+]c2c1.[Cl-]` [METHYLENE BLUE ANHYDROUS], in the experiment with CHO [7], the “fold change (FC)” value is 2. Moreover, in the experiment on CHO [8], the Activity is 43%. In the experiment on CHO [9], the viability at 100 µM stood at 80%.

On to `O=C([O-])c1c(Cl)c(Cl)c(Cl)c(Cl)c1-c1c2cc(I)c(=O)c(I)c-2oc2c(I)c([O-])c(I)cc12.[Na+].[Na+]` [ROSE BENGAL SODIUM], for which the LD50 with CHO [10] was 38.5 µmol; in the experiment on CHO [13], 2 µmol; in the experiment on CHO [15], 138.4 µmol; in the experiment on CHO [16] it was 3.3 µmol. The Activity in the experiment on CHO [11] was 95%; in [1] it was 58.4%; in the experiment on CHO [12] it was 95%; in [3] it was 44.7%; in the experiment on CHO [14] it was 95%; in experiment [5], 74.9%. In the experiment on CHO [9], the viability at 100 µM was 65%.
